Here are results for 4 compounds from BindingDB's records for doi:10.7270/Q2M61HPT (Nmmlsc, 2008).

This test has as its target Glutathione S-transferase class-mu 26 kDa isozyme (Schistosoma japonicum, UniProt P08515). Nature of the test: GST–glutathione interaction disruption – biochemical, multiplex beads, flow cytometry, HPSMTB buffer, profiling panel (AID 1324).

Chain of Glutathione S-transferase class-mu 26 kDa isozyme (P08515 2-218 limits assumed): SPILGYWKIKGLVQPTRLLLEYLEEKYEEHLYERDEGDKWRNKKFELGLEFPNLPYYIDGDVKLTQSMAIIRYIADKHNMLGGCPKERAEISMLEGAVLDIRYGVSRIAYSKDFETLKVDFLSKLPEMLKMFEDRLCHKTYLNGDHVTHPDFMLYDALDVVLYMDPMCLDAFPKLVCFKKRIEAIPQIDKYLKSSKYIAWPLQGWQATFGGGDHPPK

Consider `CN(C)[C@@H]1C(=O)C(C(=O)NCN2CCCC2)C(=O)[C@@]2(O)C(=O)C3C(=O)c4c(O)cccc4[C@@](C)(O)C3CC12` (stereo partly drawn) [(2Z,4S,6S,12aS)-4-(dimethylamino)-6,10,11,12a-tetrahydroxy-2-[hydroxy-(1-pyrrolidinylmethylamino)methylidene]-6-methyl-4,4a,5,5a-tetrahydrotetracene-1,3,12-trione], for which it took 21.4 µM to reach a half-maximal effect (EC50). Next, `COc1cc(CN=Nc2nn3cnnc3c3ccccc23)ccc1O` [(4E)-2-methoxy-4-[[2-([1,2,4]triazolo[3,4-a]phthalazin-6-yl)hydrazinyl]methylidene]cyclohexa-2,5-dien-1-one]: 2.36 µM. In the case of `O=[N+]([O-])c1ccc(N=NCc2ccc(O)c(O)c2O)c(S(=O)(=O)N2CCOCC2)c1` [MLS000336720], the EC50 amounted to 24 µM. `COc1cccc(CN=Nc2nn3cnnc3c3ccccc23)c1` [N-[1-(3-Methoxy-phenyl)-meth-(E)-ylidene]-N'-[1,2,4]triazolo[3,4-a]phthalazin-6-yl-hydrazine]: it took 7.28 µM to reach a half-maximal effect (EC50).

One may read the EC50 as the concentration at which the effect is half-maximal. A low value points to a more potent agent.
